From PubChem BioAssay (NCI)
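All cell lines were grown in 96-well plates and treated with compound for 48 hours. The concentration for full growth arrest is given as TGI.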 Where a SMILES comes first, the peptide text is derived from it. The star is where a group is joined. Boc = CC(C)(C)OC(=O)*; tBu = CC(C)(C)*

Key:
Assay in all cases: NCI anticancer screen, dose series, 48 h
786-0 renal = test system: 786-0 renal
A498 renal = test system: A498 renal
DU-145 prostate = test system: DU-145 prostate
EKVX NSCLC = test system: EKVX NSCLC
HOP-92 NSCLC = test system: HOP-92 NSCLC
HS 578T breast = test system: HS 578T breast
IGROV1 ovarian = test system: IGROV1 ovarian
K-562 leukemia = test system: K-562 leukemia
KM12 colon = test system: KM12 colon
LOX IMVI melanoma = test system: LOX IMVI melanoma
MCF7 breast = test system: MCF7 breast
MDA-N = test system: MDA-N
NCI-H23 lung = test system: NCI-H23 lung
PC-3 prostate = test system: PC-3 prostate
SF-539 CNS = test system: SF-539 CNS
SNB-75 CNS = test system: SNB-75 CNS
SW-620 colon = test system: SW-620 colon
TK-10 renal = test system: TK-10 renal
NCI-H226 lung = test system: NCI-H226 lung

Compound | TGI (786-0 renal) [µM] | TGI (A498 renal) [µM] | TGI (DU-145 prostate) [µM] | TGI (EKVX NSCLC) [µM] | TGI (HOP-92 NSCLC) [µM] | TGI (HS 578T breast) [µM] | TGI (IGROV1 ovarian) [µM] | TGI (K-562 leukemia) [µM] | TGI (KM12 colon) [µM] | TGI (LOX IMVI melanoma) [µM] | TGI (MCF7 breast) [µM] | TGI (MDA-N) [µM] | TGI (NCI-H23 lung) [µM] | TGI (PC-3 prostate) [µM] | TGI (SF-539 CNS) [µM] | TGI (SNB-75 CNS) [µM] | TGI (SW-620 colon) [µM] | TGI (TK-10 renal) [µM] | TGI (NCI-H226 lung) [µM]
Cn1c(SCc2c[nH]c3ccccc23)nnc1-c1ccc(Cl)cc1Cl | 68.6 | 86.3 | 78.5 | 49.6 | 53 | > 100 | 67.2 | 24.9 | 25.2 | 20 | 84.9 | 78.9 | 69.9 | 36.5 | 17.7 | 25.9 | > 100 | 47.2 | –
O=S(=O)(c1ccc2ccccc2c1)N1CCN(S(=O)(=O)c2ccc3ccccc3c2)CC1 | > 100 | > 100 | > 100 | > 100 | > 100 | > 100 | > 100 | > 100 | > 100 | > 100 | > 100 | > 100 | > 100 | > 100 | – | 60 | > 100 | > 100 | > 100
C=CC1(O)CCCC=C1COCc1ccccc1 (stereo unspecified) | > 100 | > 100 | > 100 | > 100 | > 100 | > 100 | 35.3 | > 100 | > 100 | 40.7 | > 100 | > 100 | > 100 | > 100 | – | > 100 | – | > 100 | > 100
Cc1cc(NS(=O)(=O)c2ccc(NC(=O)c3ccc4nc5ccccc5c(Nc5ccc(S(=O)(=O)Nc6cc(C)on6)cc5)c4c3)cc2)no1 | > 50 | – | > 50 | > 50 | > 50 | > 50 | > 50 | > 50 | > 50 | > 50 | > 50 | > 50 | > 50 | > 50 | > 50 | > 50 | > 50 | > 50 | > 50
CCOc1cc2c(cc1O)CC[C@@H]1[C@@H]2CC[C@]2(C)[C@@H](O)CC[C@@H]12 | 47.1 | 20 | 9.15 | 48 | 29.6 | > 82.8 | 56.1 | 6.24 | 10.8 | 21 | 56.4 | < 0.0198 | 24.9 | 40.8 | 0.0426 | – | > 100 | – | 3.95
COC1(c2ccccc2)NC(=S)NN=C1c1ccccc1 (stereo unspecified) | > 100 | > 100 | > 100 | > 100 | > 100 | > 100 | > 100 | > 100 | > 100 | > 100 | > 100 | 45 | > 100 | > 100 | – | 97.5 | > 100 | > 100 | –
COc1ccc(/C=N/n2c(Cc3ccccc3)n[nH]c2=O)cc1 | > 100 | > 100 | > 100 | > 100 | – | 54.4 | – | > 100 | > 100 | – | > 100 | > 100 | > 100 | > 100 | > 100 | > 100 | > 100 | – | > 100
N#Cc1c(N)nc2n[nH]c(N)c2c1-c1ccccc1 | 69.8 | 5.77 | 54.2 | 55 | 8.01 | 24.2 | 13.4 | > 100 | 79.5 | 19 | 24.7 | 33 | 50.2 | 35.5 | 21.1 | – | > 100 | > 27.1 | > 79
Cc1cc(C)nc(NC(=S)Nc2ccc(Cl)cc2)c1 | 80.2 | > 100 | > 100 | > 100 | – | > 100 | > 100 | > 100 | > 100 | > 100 | > 100 | > 100 | – | > 100 | > 100 | 63.7 | > 100 | > 100 | > 100
COc1ccc2c(C(=O)c3c(C)n(CCN4CCOCC4)c4ccccc34)cccc2c1 | > 100 | > 100 | > 100 | > 100 | > 100 | 40.6 | > 100 | > 100 | 68.2 | 45.4 | 55.9 | > 100 | > 100 | 96.6 | > 100 | – | 55.4 | > 100 | > 100
O=C(/C=C/c1cccs1)c1ccc([N+](=O)[O-])cc1 | > 100 | > 100 | > 100 | > 100 | – | > 100 | > 100 | > 100 | > 100 | > 100 | > 100 | > 100 | > 100 | > 100 | > 100 | > 100 | > 100 | > 100 | > 100
CCOP(=O)(/C=C/n1cnc2c(=O)n(C(C)=O)c(N)nc21)OCC | > 100 | > 100 | > 100 | > 100 | – | > 100 | > 100 | > 100 | > 100 | > 100 | > 100 | > 100 | > 100 | > 100 | > 100 | > 100 | > 100 | > 100 | > 100
O=S(=O)(/N=C(\NO)Nc1ccc(Cl)cc1)c1cc(S(=O)(=O)c2ccccc2)cs1 | 30 | 28.4 | 33 | 35.4 | 31.5 | 54.8 | 44.9 | 31.6 | 64.7 | 39 | 35.9 | 34.8 | 41.9 | 33.9 | 32.4 | – | 49.2 | 45.4 | 51.6
COC(=O)[C@]1(C)CCCC2(C)C3=C(CCC21)CC1(CC3)SCCS1 (stereo partly specified) | > 10 | > 10 | > 10 | > 10 | > 10 | > 10 | > 10 | > 10 | > 10 | – | > 10 | > 10 | > 10 | > 10 | > 10 | > 10 | > 10 | > 10 | –
Cc1ccc(C=C(C(=O)O)C(=O)O)o1 | > 100 | > 100 | > 100 | > 100 | – | > 100 | > 100 | > 100 | > 100 | > 100 | > 100 | > 100 | > 100 | > 100 | > 100 | > 100 | > 100 | > 100 | > 100
O/N=C1\CSc2ccccc2C1 | > 100 | > 100 | > 100 | 94.5 | > 100 | > 100 | > 100 | > 100 | > 100 | > 100 | > 100 | > 100 | > 100 | > 100 | > 100 | – | > 100 | > 100 | > 100
CC1=CC(=O)c2c(O)c3c(c(O)c2C1=O)C1C(O)C(C3=O)C23C(=O)c4c(O)c(C)cc(O)c4C(O)=C2C(=O)CC(O)C13 (stereo unspecified) | 5.69 | 3.37 | 3.61 | 8.21 | – | 3.44 | 6.58 | > 100 | 2.5 | 4.7 | 14.6 | 2.89 | 14.1 | 10.2 | 5.07 | 9.1 | 12.2 | 11.6 | 6.56
CCN(CC)Cc1ccc(Nc2c3ccccc3nc3ccccc23)cc1 | 10 | 9.41 | 7.01 | 26.2 | 11.9 | 21.8 | 13.9 | 7.69 | 13.1 | 3.3 | 4.36 | 3.23 | 4.52 | 3.68 | 3.45 | – | 4.12 | 18.8 | –
CON(C)C(=O)C(C)NC(=O)OC(C)(C)C (stereo unspecified) | > 100 | > 100 | > 100 | > 100 | > 100 | > 100 | > 100 | > 100 | > 100 | – | > 100 | > 100 | > 100 | > 100 | > 100 | > 100 | > 100 | > 100 | > 100
CC(OC(C)(C)C)C(NC(=O)C(N)CCCCNC(=O)OC(C)(C)C)C(=O)NC(Cc1ccccc1)C(=O)O (stereo unspecified) (H-Lys(Boc)-Thr(tBu)-Phe-OH; configuration not given here) | > 100 | – | > 100 | > 100 | > 100 | > 100 | > 100 | > 100 | > 100 | > 100 | > 100 | > 100 | > 100 | > 100 | > 100 | > 100 | > 100 | > 100 | > 100
